In PubChem BioAssay AID1963433 (Molecular Pharmacology Branch, DTP, NCI, 2024):

Tested on: 772245-204-R-J1-PDC complex spheroid growth
Assay: Anticancer human tumor 772245-204-R-J1-PDC patient-derived rhabdomyosarcoma cell line growth inhibition [Asc]
Conditions: for IC50: curve of first compound; for viability, T/C: stronger effect = lower value
How it was run: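 Concentration series start at each agent's clinical Cmax, or at 10 microM when none is established, and drop in half-log steps; agents are applied alone or together to complex spheroids built with HUVEC and hMSC.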

[1] = second compound 0.1 µM, first compound 0.00316 µM
[2] = second compound 0.1 µM, first compound 0.01 µM
[3] = second compound 0.1 µM, first compound 0.0316 µM
[4] = second compound 0.1 µM, first compound 0.1 µM
[5] = second compound 0.1 µM, first compound 0.316 µM
[6] = second compound 0.1 µM, first compound 1 µM
[7] = second compound 0.316 µM, first compound 0.00316 µM
[8] = second compound 0.316 µM, first compound 0.01 µM
[9] = second compound 0.316 µM, first compound 0.0316 µM
[10] = second compound 0.316 µM, first compound 0.1 µM
[11] = second compound 0.316 µM, first compound 0.316 µM
[12] = second compound 0.316 µM, first compound 1 µM
[13] = second compound 1 µM, first compound 0.00316 µM
[14] = second compound 1 µM, first compound 0.01 µM
[15] = second compound 1 µM, first compound 0.0316 µM
[16] = second compound 1 µM, first compound 0.1 µM
[17] = second compound 1 µM, first compound 0.316 µM
[18] = second compound 1 µM, first compound 1 µM
[19] = second compound 3.16 µM, first compound 0.00316 µM
[20] = second compound 3.16 µM, first compound 0.01 µM
[21] = second compound 3.16 µM, first compound 0.0316 µM
[22] = second compound 3.16 µM, first compound 0.1 µM
[23] = second compound 3.16 µM, first compound 0.316 µM
[24] = second compound 3.16 µM, first compound 1 µM
[25] = second compound 10 µM, first compound 0.00316 µM
[26] = second compound 10 µM, first compound 0.01 µM
[27] = second compound 10 µM, first compound 0.0316 µM
[28] = second compound 10 µM, first compound 0.1 µM
[29] = second compound 10 µM, first compound 0.316 µM
[30] = second compound 10 µM, first compound 1 µM
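Note: compound exposure lasted seven days.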
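Throughout, for viability, T/C: 100% = DMSO vehicle control viability.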

SMILES	IC50 (second compound 0.1 µM) [nM]	IC50 (second compound 0.316 µM) [nM]	IC50 (second compound 1 µM) [nM]	IC50 (second compound 3.16 µM) [nM]	IC50 (second compound 10 µM) [nM]	viability, T/C [1] [%]	viability, T/C [2] [%]	viability, T/C [3] [%]	viability, T/C [4] [%]	viability, T/C [7] [%]	viability, T/C [8] [%]	viability, T/C [9] [%]	viability, T/C [10] [%]	viability, T/C [13] [%]	viability, T/C [14] [%]	viability, T/C [15] [%]	viability, T/C [16] [%]	viability, T/C [19] [%]	viability, T/C [20] [%]	viability, T/C [21] [%]	also measured
CCN1CCN(Cc2ccc(Nc3ncc(F)c(-c4cc(F)c5nc(C)n(C(C)C)c5c4)n3)nc2)CC1 + Cc1c(S(C)(=O)=O)c(-c2cc(F)cc(N3CCN(c4ccc(NS(=O)(=O)c5ccc(NC(CCN6CCC(C(=O)OCCCP(=O)(O)O)CC6)CSc6ccccc6)c(S(=O)(=O)C(F)(F)F)c5)cc4)CC3)c2)c(-c2ccc(Cl)cc2)n1C(C)C	> 1000	436	23.9	< 3.16	< 3.16	77.4	78.2	77.3	82.1	68.9	58.1	60.5	58.5	53.9	52.9	50	37.7	49	42.5	42	viability, T/C [5]: 83.4%; viability, T/C [6]: 74.7%; viability, T/C [11]: 51.7%; viability, T/C [12]: 45.5%; viability, T/C [17]: 22.8%; viability, T/C [18]: 9.85%; viability, T/C [22]: 32.6%; viability, T/C [23]: 15.1%; viability, T/C [24]: 5.17%; viability, T/C [25]: 49.7%; viability, T/C [26]: 42.3%; viability, T/C [27]: 41%; viability, T/C [28]: 29.9%; viability, T/C [29]: 15.5%; viability, T/C [30]: 3.23%
Cn1ncnc1[C@H]1c2n[nH]c(=O)c3cc(F)cc(c23)N[C@@H]1c1ccc(F)cc1 + Cc1c(S(C)(=O)=O)c(-c2cc(F)cc(N3CCN(c4ccc(NS(=O)(=O)c5ccc(NC(CCN6CCC(C(=O)OCCCP(=O)(O)O)CC6)CSc6ccccc6)c(S(=O)(=O)C(F)(F)F)c5)cc4)CC3)c2)c(-c2ccc(Cl)cc2)n1C(C)C	> 100	3.84	1.23	< 0.316	< 0.316	70.5	63.3	58.9	55	53.3	37	29.2	23.6	37	15.5	25.8	15.2	33.3	19.7	12.5	viability, T/C (second compound 0.1 µM, first compound 0.000316 µM): 73.2%; viability, T/C (second compound 0.1 µM, first compound 0.001 µM): 77.1%; viability, T/C (second compound 0.316 µM, first compound 0.000316 µM): 61.4%; viability, T/C (second compound 0.316 µM, first compound 0.001 µM): 58.8%; viability, T/C (second compound 1 µM, first compound 0.000316 µM): 47.1%; viability, T/C (second compound 1 µM, first compound 0.001 µM): 58.7%; viability, T/C (second compound 3.16 µM, first compound 0.000316 µM): 34.2%; viability, T/C (second compound 3.16 µM, first compound 0.001 µM): 44.3%; viability, T/C [22]: 10.6%; viability, T/C (second compound 10 µM, first compound 0.000316 µM): 40.9%; viability, T/C (second compound 10 µM, first compound 0.001 µM): 34.6%; viability, T/C [25]: 27.7%; viability, T/C [26]: 13.2%; viability, T/C [27]: 11.1%; viability, T/C [28]: 12%
O=C(c1ccc(F)c(F)c1Nc1ccc(I)cc1F)N1CC(O)([C@@H]2CCCCN2)C1 + Cc1c(S(C)(=O)=O)c(-c2cc(F)cc(N3CCN(c4ccc(NS(=O)(=O)c5ccc(NC(CCN6CCC(C(=O)OCCCP(=O)(O)O)CC6)CSc6ccccc6)c(S(=O)(=O)C(F)(F)F)c5)cc4)CC3)c2)c(-c2ccc(Cl)cc2)n1C(C)C	673	364	350	224	342	85.4	85.7	85	72.4	76.3	76.7	64.4	67.5	61.1	66	66.4	69	57.1	60.7	56.6	viability, T/C [5]: 80.5%; viability, T/C [6]: 34.2%; viability, T/C [11]: 55.9%; viability, T/C [12]: 19.9%; viability, T/C [17]: 50.8%; viability, T/C [18]: 13.4%; viability, T/C [22]: 59.7%; viability, T/C [23]: 45.9%; viability, T/C [24]: 8.31%; viability, T/C [25]: 40.2%; viability, T/C [26]: 44.9%; viability, T/C [27]: 57.1%; viability, T/C [28]: 78.8%; viability, T/C [29]: 52.2%; viability, T/C [30]: 4.51%
